{
  "source": "paper PMC9865214",
  "about": "(International Journal of Molecular Sciences, 2023)",
  "key": {"[1]": {"assay": "IPI content of L3-L5 spinal segments by mass spectrometry", "assay_type": "in vivo, Wistar rat", "settings": "CART(55-76)-treated inflamed rats; LC-MS/MS; p = 0.032 vs inflamed, p = 0.027 vs naive", "method": "Three naïve adult male Wistar rats (NG10, NG11, and NG12), 3 rats with unilateral carrageenan-induced hind paw inflammation (GG9, GG10, and GG11), and 3 inflamed rats that received CART(55-76) peptide intrathecally (CG9, CG10, and CG11) were decapitated, and L3–L5 spinal cord segments were removed and snap frozen on dry ice. Tissue was homogenized by sonication in cold acetonitrile (4 °C) in a volume of 10 µL/mg of tissue and centrifuged for 10 min at 14,000 rpm. Supernatant was transferred into Eppendorf tubes and stored at −80 °C until use.\nStandard solution of IPI was used for making the calibration curve in the range of 0–50 ng/mL. […] Water containing 0.1% formic acid (eluent A) and acetonitrile containing 0.1% formic acid (eluent B) were used for separation in gradient mode. […] The initial concentration was reached within 0.5 min, and the equilibration time was 5.5 min. The flow rate was 0.5 mL/minute. Column temperature was ambient. The injection volume was 10 µL. […] MRM transitions were identified in product ion scan mode. […] Dwell times were 150 ms for each transition."}, "[2]": {"tested_on": "TLR4 activation-induced cytokine expression", "settings": "cited from earlier work", "excerpt": "The synaptic model of hyperalgesia is the LTP at C-fibre synapses. The induction of hyperalgesia and LTP by inducible mediators including TNFα was discovered and called gliogenic LTP [35]. […] The opioid-mediated effect is established by an exogenous peptide if an opioid receptor is activated or if an endogenous opioid release is induced."}, "[3]": {"tested_on": "inflammatory hyperalgesia", "settings": "naltrexone alone; ref [67]; cited from earlier work", "excerpt": "(§1) The opioid-mediated effect is established by an exogenous peptide if an opioid receptor is activated or if an endogenous opioid release is induced."}, "[4]": {"tested_on": "TLR4 in the TLR4/myeloid differentiation protein-2 heterodimer", "settings": "ref [68],[69],[70] (NTX, naloxone), [71] (CTAP); cited from earlier work", "excerpt": "as §1"}, "chronic pain states": {"tested_on": "chronic pain states", "settings": "low-dose NTX, humans; ref [76]; cited from earlier work", "excerpt": "(§2) The similarity of the first two amino acids in the N-terminal region of CART(62-76) to endogenous opioid peptides raises the possibility that this fragment may also bind to […]. Specific binding studies are necessary to answer this question. […] Further studi ..."}, "[5]": {"tested_on": "chronic constriction injury model", "settings": "chronic constriction injury model in rats; ref [75]; cited from earlier work", "excerpt": "as §2"}, "[6]": {"tested_on": "hyperalgesia provoked by carrageenan or partial nerve ligation", "settings": "no ref given; cited from earlier work", "excerpt": "Further studies are needed to reveal the signalling mechanism to understand this process."}, "[7]": {"tested_on": "spinal astrocytes (DPP4, TLR4, caveolin-1)", "assay": "Immunocytochemistry of spinal astrocytes (DPP4, TLR4, caveolin-1)", "assay_type": "cell-based, Wistar rat", "method": "(§3) For the production of spinal cord astrocyte cultures, we followed the procedure already described by Pap et al. with slight modifications. Briefly, the whole spinal cord was removed from 7–8 day-old Wistar rat pups after decapitation and was placed into ice-cold dissecting buffer (136 mM NaCl, 5.2 mM KCl, 0.64 mM Na2HPO4, 0.22 mM KH2PO4, 16.6 mM glucose, 22 mM sucrose, 10 mM HEPES supplemented with 0.06 U/mL penicillin and 0.06 U/mL streptomycin). The isolated spinal cords were cleaned of the meninges, then were placed into fresh dissecting solution containing 0.025 g/mL bovine trypsin (Merck–Sigma-Aldrich), and were incubated at 37 °C for 30 min. Then, the solution was replaced by Minimum Essential Medium (MEM, Gibco, Life Technologies Ltd., Parsely, UK) supplemented with 10% Fetal Bovine Serum (FBS, Hyclone, GE Healthcare Bio-Sciences, Pittsburgh, PA, USA). Finally, cells were suspended by gentle suspension of the tissue pieces by a Pasteur pipette. The cell number was identified, the cell density was set to 1 × 10^6/mL, and the cells were placed into 24 well tissue culture plates (0.5 mL/well). The cell cultures were kept at 37 °C in a 5% CO2 atmosphere, and the medium was replaced the following day and then every second day. […]"}, "[8]": {"tested_on": "spinal astrocytes (TNFα secretion)", "assay": "TNFα secretion of LPS-stimulated spinal astrocyte cultures, ELISA", "assay_type": "cell-based, Wistar rat", "settings": "1 μg/mL LPS, control level set to 100%", "method": "as §3, with “USA).” for “USA). Finally, cells were suspended by gentle suspension of the tissue pieces by a Pasteur pipette. The cell number was identified, the cell density was set to 1 × 10^6/mL, and the cells were placed into 24 well tissue culture plates (0.5 mL/well). The cell cultures were kept at 37 °C in a 5% CO2 atmosphere, and the medium was replaced the following day and then every second day.”\nELISA was performed as already described. […] Colour reaction was developed by o-phenylene-diamine, and the optical density was measured at λ = 492 nm by ELISA plate reader (Titertek, Uniscan, Flow Laboratories, Helsinki, Finland).\nOptical density data were averaged, and the standard error of mean values was calculated for each treatment. […] Statistically significant differences were calculated by one-way ANOVA followed by Student-Newman-Keuls pairwise comparison. […]"}, "[9]": {"tested_on": "spinal astrocytes (DPP4 expression)", "assay": "DPP4 expression of spinal astrocytes, western blot", "assay_type": "cell-based, Wistar rat", "settings": "1 μg/mL LPS", "method": "as §3, with “mL/well).” for “mL/well). The cell cultures were kept at 37 °C in a 5% CO2 atmosphere, and the medium was replaced the following day and then every second day.”\nFractions of 50 µg protein/lane cytosol were run on 10% polyacrylamide gels. […] Relative protein levels for DPP4 upon 16 h of LPS treatment were quantified by densitometry in three independent astrocyte cultures and analysed by the Kolmogorov-Smirnov statistical test."}},
  "note": "Counter-ions that a name gives are not always drawn.",
  "data": [
    {"compound": "CC[C@H](C)[C@H](N)C(=O)N1CCC[C@H]1C(=O)N[C@H](C(=O)O)[C@@H](C)CC", "note": "[IPI, isoleucine-proline-isoleucine]", "values": [
      {"measurement": "IPI concentration of spinal segments, change", "setting": "[1]", "value": "increased significantly"}
    ]},
    {"compound": "O=C1CC[C@@]2(O)[C@H]3Cc4ccc(O)c5c4[C@@]2(CCN3CC2CC2)[C@H]1O5", "note": "[NTX, naltrexone hydrochloride]", "values": [
      {"measurement": "Effect on TLR4 agonist-induced cytokine production", "setting": "[2]; ref [72]", "value": "did not block the TLR4 agonist-induced cytokine production"},
      {"measurement": "Effect on inflammatory hyperalgesia", "setting": "[3]", "value": "no effect on inflammatory hyperalgesia"},
      {"measurement": "TLR4 antagonism", "setting": "[4]", "value": "TLR4 antagonists"},
      {"measurement": "Effect in chronic pain states", "setting": "chronic pain states", "value": "effective in a variety of chronic pain states in humans"},
      {"measurement": "Antiallodynic effect", "setting": "[5]", "value": "antiallodynic effect"}
    ]},
    {"compound": "Cn1c(=O)cc(N2CCC[C@@H](N)C2)n(Cc2ccccc2C#N)c1=O", "note": "[algogliptin]", "values": [
      {"measurement": "Effect on TLR4 activation-induced cytokine expression", "setting": "[2]; IL-6, IL-1β and other cytokines, ref [57]", "value": "decreased the TLR4 activation-induced IL-6, IL-1β, and other cytokine expression"}
    ]},
    {"compound": "C=CCN1CC[C@]23c4c5ccc(O)c4O[C@H]2C(=O)CC[C@@]3(O)[C@H]1C5", "note": "[naloxone]", "values": [
      {"measurement": "TLR4 antagonism", "setting": "[4]", "value": "TLR4 antagonists"}
    ]},
    {"compound": "N#C[C@@H]1CCCN1C(=O)CNC12CC3CC(CC(O)(C3)C1)C2", "note": "[vildagliptin]", "values": [
      {"measurement": "Antihyperalgesic effect in neuropathic condition", "setting": "[6]", "value": "antihyperalgesic effects in a neuropathic condition"}
    ]},
    {"compound": "D-Phe-Cys-Tyr-D-Trp-Arg-Thr-Pen-Thr-NH2 [CTAP]", "values": [
      {"measurement": "TLR4 antagonism", "setting": "[4]", "value": "TLR4 antagonists"}
    ]},
    {"compound": "lipopolysaccharide [LPS]", "values": [
      {"measurement": "DPP4 staining intensity", "setting": "[7]; 1 μg/mL LPS, 6 h", "value": "considerably increased"},
      {"measurement": "TLR4 and caveolin-1 subcellular localization", "setting": "[7]; LPS-stimulated cultures, 1 μg/mL", "value": "both proteins were trafficked toward the cell surface"},
      {"measurement": "Relative TNFα secretion with LPS", "setting": "[8]", "value": "368 ± 9", "unit": "%"},
      {"measurement": "DPP4 optical density value", "setting": "[9]; 16 h (control 0.62 ± 0.084), densitometry", "value": "1.08 ± 0.059"},
      {"measurement": "DPP4 expression level increase", "setting": "[9]; 16 h, vs control cultures, three independent cultures, ± SEM", "value": "74.3 ± 9.6", "unit": "%"}
    ]}
  ]
}
